From US20230117034A1, “PYRAZOLOTRIAZINES” (Bayer Aktiengesellschaft, priority 2019, published 2023)

Experiments:
CDK9/CycT1 = biological target: T1, CDK9/CycT1 (Homo sapiens, UniProt P50750); test: CDK9/CycT1 high ATP kinase assay (TR-FRET, 2 mM ATP); type: biochemical; settings: 2 mM ATP (high ATP); median; read-out: CDK9/CyclinT1, 2 mM ATP (high ATP), IC50 (median)
T1 construct: Recombinant full-length His-tagged human CDK9 and CycT1; purchased Life Technologies PV4131; host or cells: insect cells
T1 sequence (P50750 whole entry): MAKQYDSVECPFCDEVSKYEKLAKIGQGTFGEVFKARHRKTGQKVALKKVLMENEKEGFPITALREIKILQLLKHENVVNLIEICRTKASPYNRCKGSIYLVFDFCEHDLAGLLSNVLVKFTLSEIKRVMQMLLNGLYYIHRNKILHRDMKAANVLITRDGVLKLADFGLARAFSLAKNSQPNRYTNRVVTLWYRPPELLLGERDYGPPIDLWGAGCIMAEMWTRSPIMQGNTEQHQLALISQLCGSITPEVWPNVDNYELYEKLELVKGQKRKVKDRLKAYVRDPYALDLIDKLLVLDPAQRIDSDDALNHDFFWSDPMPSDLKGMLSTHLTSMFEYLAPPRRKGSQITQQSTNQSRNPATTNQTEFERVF
T1 sequence (O60563 whole entry partner): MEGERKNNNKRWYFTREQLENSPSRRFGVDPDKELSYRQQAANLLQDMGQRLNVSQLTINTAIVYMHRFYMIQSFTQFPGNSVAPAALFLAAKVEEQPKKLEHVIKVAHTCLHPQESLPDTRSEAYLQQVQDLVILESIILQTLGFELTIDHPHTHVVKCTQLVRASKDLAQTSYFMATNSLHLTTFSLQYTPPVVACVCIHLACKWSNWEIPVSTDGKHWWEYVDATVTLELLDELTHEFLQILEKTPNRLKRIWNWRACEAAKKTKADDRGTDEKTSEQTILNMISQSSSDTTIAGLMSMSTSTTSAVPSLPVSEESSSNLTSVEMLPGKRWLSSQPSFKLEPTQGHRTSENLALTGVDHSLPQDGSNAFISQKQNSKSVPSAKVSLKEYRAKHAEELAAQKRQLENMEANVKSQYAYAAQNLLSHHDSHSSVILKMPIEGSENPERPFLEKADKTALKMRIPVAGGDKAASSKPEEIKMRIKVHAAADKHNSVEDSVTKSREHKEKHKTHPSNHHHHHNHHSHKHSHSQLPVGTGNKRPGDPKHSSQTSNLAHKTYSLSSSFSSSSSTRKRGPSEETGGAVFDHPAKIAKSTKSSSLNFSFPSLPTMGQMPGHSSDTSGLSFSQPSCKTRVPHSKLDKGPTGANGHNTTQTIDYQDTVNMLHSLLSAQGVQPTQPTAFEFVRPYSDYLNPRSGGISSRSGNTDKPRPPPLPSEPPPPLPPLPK
Procedure, shortened: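 Full-length His-tagged human CDK9/CycT1 (insect cell, ~0.5 μg/mL) preincubated 15 min at 22 °C with compound in Tris pH 8.0, MgCl2, DTT buffer before reaction with biotinylated peptide substrate at high ATP (2 mM).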

[1] = test system: BRCA1 mRNA expression in MDA-MB-231 cells; test: qRT-PCR assay: BRCA1 mRNA expression in MDA-MB-231; type: cell-based, human; settings: Homo sapiens, MDA-MB-231, Inhibition of BRCA1 mRNA expression in MDA-MB-231 cells; median; read-out: RTqPCR-MDA-MB-231, IC50, BRCA1 (median)
Procedure, shortened: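 MDA-MB-231 cells, 200,000/well, treated 24 h after plating with continuous 24 h compound exposure. RNA extracted, 600 ng reverse-transcribed, BRCA1 measured by RT-qPCR normalized to GAPDH.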

[2] = biological target: T2, CDK12 (nuclear staining in CAL-120 cells) (Homo sapiens, UniProt Q9NYV4); test: CDK12 nuclear protein level: immunofluorescence/high content analysis (CAL-120); type: cell-based; settings: for DC50: CAL-120 cells, 24 h, immunofluorescence, 50% reduction of nuclear CDK12 staining intensity, median, read-out: CDK12 degradation IF, DC50- [mol/l] (median); for (IC50 CDK12 high ATP) to (Degradation DC50 CDK12) ratio: ratio of IC50 CDK12 high ATP kinase assay to DC50 CDK12 degradation (IF, CAL-120)
T2 construct: endogenous in cells; host or cells: CAL-120 human breast cancer cells (DSMZ ACC 459)
T2 sequence (Q9NYV4 whole entry): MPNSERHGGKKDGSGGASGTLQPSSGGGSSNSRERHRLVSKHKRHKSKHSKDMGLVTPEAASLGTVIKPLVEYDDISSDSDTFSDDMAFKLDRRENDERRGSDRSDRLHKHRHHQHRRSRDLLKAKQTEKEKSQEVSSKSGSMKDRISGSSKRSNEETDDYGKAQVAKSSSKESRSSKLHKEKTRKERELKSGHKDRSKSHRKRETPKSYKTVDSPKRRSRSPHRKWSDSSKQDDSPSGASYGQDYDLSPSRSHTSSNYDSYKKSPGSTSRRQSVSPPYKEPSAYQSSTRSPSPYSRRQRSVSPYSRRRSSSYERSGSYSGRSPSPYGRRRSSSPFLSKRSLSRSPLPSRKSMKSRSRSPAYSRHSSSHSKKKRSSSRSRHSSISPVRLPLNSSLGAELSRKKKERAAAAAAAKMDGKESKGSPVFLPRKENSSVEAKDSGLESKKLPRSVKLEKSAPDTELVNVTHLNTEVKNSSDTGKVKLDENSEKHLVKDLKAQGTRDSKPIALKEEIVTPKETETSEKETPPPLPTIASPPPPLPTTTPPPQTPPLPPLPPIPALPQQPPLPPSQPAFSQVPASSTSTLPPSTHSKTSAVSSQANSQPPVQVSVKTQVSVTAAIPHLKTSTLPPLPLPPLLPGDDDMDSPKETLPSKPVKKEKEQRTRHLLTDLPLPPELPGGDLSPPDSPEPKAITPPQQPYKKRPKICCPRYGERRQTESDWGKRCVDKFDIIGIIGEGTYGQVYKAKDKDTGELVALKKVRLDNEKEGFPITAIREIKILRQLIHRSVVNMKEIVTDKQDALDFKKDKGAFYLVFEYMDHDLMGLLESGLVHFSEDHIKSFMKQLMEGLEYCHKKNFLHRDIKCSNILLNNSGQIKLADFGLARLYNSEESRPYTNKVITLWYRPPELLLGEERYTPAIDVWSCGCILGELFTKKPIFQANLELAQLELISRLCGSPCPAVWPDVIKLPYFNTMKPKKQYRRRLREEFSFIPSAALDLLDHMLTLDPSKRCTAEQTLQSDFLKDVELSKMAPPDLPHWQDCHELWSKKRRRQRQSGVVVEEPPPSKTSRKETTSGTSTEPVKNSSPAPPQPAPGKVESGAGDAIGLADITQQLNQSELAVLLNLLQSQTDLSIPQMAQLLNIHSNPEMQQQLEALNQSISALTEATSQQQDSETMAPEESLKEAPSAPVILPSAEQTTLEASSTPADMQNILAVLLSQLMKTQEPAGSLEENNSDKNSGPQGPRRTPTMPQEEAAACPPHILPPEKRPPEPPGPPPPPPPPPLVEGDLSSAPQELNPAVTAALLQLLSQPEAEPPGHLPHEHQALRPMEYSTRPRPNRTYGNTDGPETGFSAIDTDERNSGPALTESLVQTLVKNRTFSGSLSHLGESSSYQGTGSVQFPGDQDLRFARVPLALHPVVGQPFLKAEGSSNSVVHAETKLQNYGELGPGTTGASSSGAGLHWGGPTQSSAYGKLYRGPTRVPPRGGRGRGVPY
T2 sequence (O75909 whole entry partner): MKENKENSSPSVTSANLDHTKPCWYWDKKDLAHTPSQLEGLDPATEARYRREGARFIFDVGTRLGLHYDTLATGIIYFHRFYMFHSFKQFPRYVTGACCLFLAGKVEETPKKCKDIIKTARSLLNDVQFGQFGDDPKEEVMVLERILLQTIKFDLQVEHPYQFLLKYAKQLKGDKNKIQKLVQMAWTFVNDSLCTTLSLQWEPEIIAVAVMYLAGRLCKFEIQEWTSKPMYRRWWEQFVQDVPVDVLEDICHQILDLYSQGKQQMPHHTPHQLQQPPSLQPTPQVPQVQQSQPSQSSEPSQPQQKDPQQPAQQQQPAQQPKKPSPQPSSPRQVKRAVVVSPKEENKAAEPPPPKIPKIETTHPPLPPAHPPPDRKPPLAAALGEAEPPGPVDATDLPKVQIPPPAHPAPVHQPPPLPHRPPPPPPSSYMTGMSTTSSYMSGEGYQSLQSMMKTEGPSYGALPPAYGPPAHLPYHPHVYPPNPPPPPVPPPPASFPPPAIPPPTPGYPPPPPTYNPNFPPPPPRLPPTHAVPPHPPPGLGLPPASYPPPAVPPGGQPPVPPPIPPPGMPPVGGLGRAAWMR
Procedure, shortened: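 CAL-120 cells were treated with compound for 24 h at 37 °C, fixed with PFA and immunostained for CDK12. Nuclear CDK12 intensity was quantified by automated image analysis and normalized to DMSO and control. DC50 is the concentration giving 50% reduction of nuclear staining.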

[3] = biological target: T3, CYCLIN K (nuclear staining in CAL-120 cells) (Homo sapiens, UniProt O75909); test: CYCLIN K nuclear protein level: immunofluorescence high content analysis (CAL-120); type: cell-based; settings: 24 h, 50% reduction of nuclear CCNK staining intensity, median, read-out: CYCLIN K degradation IF, DC50-[mol/l] (median)
T3 construct: endogenous in cells; host or cells: CAL-120 human breast cancer cells (DSMZ ACC 459)
T3 sequence (O75909 whole entry): as the sequence (O75909 whole entry partner) above
T3 sequence (Q9NYV4 whole entry partner): as the sequence (Q9NYV4 whole entry) above
Procedure, shortened: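 CAL-120 breast cancer cells treated in dose-response for 24 h at 37 °C, PFA-fixed and immunostained for cyclin K with Hoechst counterstain. Confocal imaging quantified nuclear intensity; DC50 is the concentration giving 50% reduction of nuclear CCNK staining, normalized to DMSO and control.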

## Fc1cccc2[nH]c(CNc3nc(N4CCOCC4)nc4c(C5CC5)cnn34)nc12 [Example 188, 8-cyclopropyl-N-[(4-fluoro-1H-benzimidazol-2-yl)methyl]-2-(morpholin-4-yl)pyrazolo[1,5-a][1,3,5]triazin-4-amine]
CDK9/CycT1
  IC50: > 20000 nM
[1]
  IC50: 3.06 nM
[2]
  DC50: 1.26 nM
  (IC50 CDK12 high ATP) to (Degradation DC50 CDK12) ratio: 460
[3]
  DC50: 0.815 nM

## C[C@@H]1CN(c2nc(NCc3nc4c(F)c(F)ccc4[nH]3)n3ncc(C4CC4)c3n2)C[C@H](C)N1 [Example 170, 8-cyclopropyl-N-[(4,5-difluoro-1H-benzimidazol-2-yl)methyl]-2-[(3R,5S)-3,5-dimethylpiperazin-1-yl]pyrazolo[1,5-a][1,3,5]triazin-4-amine]
CDK9/CycT1
  IC50: > 20000 nM
[1]
  IC50: 0.419 nM
[2]
  DC50: 0.574 nM
  (IC50 CDK12 high ATP) to (Degradation DC50 CDK12) ratio: 5303
[3]
  DC50: 0.415 nM

## OC[C@@H]1CCCCN1c1nc(NCc2nc3c(F)cccc3[nH]2)n2ncc(C3CC3)c2n1 [Example 189, [(2S)-1-(8-cyclopropyl-4-{[(4-fluoro-1H-benzimidazol-2-yl)methyl]amino}pyrazolo[1,5-a][1,3,5]triazin-2-yl)piperidin-2-yl]methanol]
CDK9/CycT1
  IC50: 2200 nM
[1]
  IC50: 1.98 nM
[2]
  DC50: 0.557 nM
  (IC50 CDK12 high ATP) to (Degradation DC50 CDK12) ratio: 20
[3]
  DC50: 0.318 nM

## C[C@H]1CN(c2nc(NCc3nc4ccccc4[nH]3)n3ncc(Br)c3n2)CCN1 [Example 169, N-[(1H-benzimidazol-2-yl)methyl]-8-bromo-2-[(3S)-3-methylpiperazin-1-yl]pyrazolo[1,5-a][1,3,5]triazin-4-amine]
CDK9/CycT1
  IC50: > 20000 nM
[1]
  IC50: 3.32 nM
[2]
  DC50: 1.09 nM
  (IC50 CDK12 high ATP) to (Degradation DC50 CDK12) ratio: 12610
[3]
  DC50: 1.95 nM

## CN(CC(C)(C)O)c1nc(NCc2nc3ccccc3[nH]2)n2ncc(Br)c2n1 [Example 238, 1-[(4-{[(1H-benzimidazol-2-yl)methyl]amino}-8-bromopyrazolo[1,5-a][1,3,5]triazin-2-yl)(methyl)amino]-2-methylpropan-2-ol]
CDK9/CycT1
  IC50: > 18700 nM
[1]
  IC50: > 12.4 nM
[2]
  DC50: 6.49 nM
  (IC50 CDK12 high ATP) to (Degradation DC50 CDK12) ratio: 276
[3]
  DC50: 4.19 nM

## Cc1ccc2[nH]c(CNc3nc(N4CCOCC4)nc4c(C5CC5)cnn34)nc2c1 [Example 193, 8-cyclopropyl-N-[(5-methyl-1H-benzimidazol-2-yl)methyl]-2-(morpholin-4-yl)pyrazolo[1,5-a][1,3,5]triazin-4-amine]
CDK9/CycT1
  IC50: > 20000 nM
[1]
  IC50: 3.65 nM
[2]
  DC50: 2.68 nM
  (IC50 CDK12 high ATP) to (Degradation DC50 CDK12) ratio: 653
[3]
  DC50: 0.958 nM

## Brc1cnn2c(NCc3nc4ccccc4[nH]3)nc(N3CC4CCC3CN4)nc12 (stereo not drawn) [Example 220, N-(1H-benzimidazol-2-ylmethyl)-8-bromo-2-(2,5-diazabicyclo[2.2.2]octan-2-yl)pyrazolo[1,5-a][1,3,5]triazin-4-amine]
CDK9/CycT1
  IC50: > 20000 nM
[1]
  IC50: 4.18 nM
[2]
  DC50: 4.21 nM
  (IC50 CDK12 high ATP) to (Degradation DC50 CDK12) ratio: 1318
[3]
  DC50: 1.14 nM

## Brc1cnn2c(NCc3nc4ccccc4[nH]3)nc(N3CCNC4(CC4)C3)nc12 [Example 176, N-[(1H-benzimidazol-2-yl)methyl]-8-bromo-2-(4,7-diazaspiro[2.5]octan-7-yl)pyrazolo[1,5-a][1,3,5]triazin-4-amine]
CDK9/CycT1
  IC50: > 20000 nM
[1]
  IC50: 4.68 nM
[2]
  DC50: 1.53 nM
  (IC50 CDK12 high ATP) to (Degradation DC50 CDK12) ratio: 1525
[3]
  DC50: 0.208 nM

## COC(C)(C)CNc1nc(NCc2nc3ccccc3[nH]2)n2ncc(Br)c2n1 [Example 236, N4-(1H-benzimidazol-2-ylmethyl)-8-bromo-N2-(2-methoxy-2-methyl-propyl)pyrazolo[1,5-a][1,3,5]triazine-2,4-diamine]
CDK9/CycT1
  IC50: > 20000 nM
[1]
  IC50: 20.4 nM
[2]
  DC50: 7.18 nM
[3]
  DC50: 1.72 nM

## CN1CC[C@H]2CN(c3nc(NCc4nc5ccccc5[nH]4)n4ncc(Br)c4n3)C[C@H]21 [Example 179, N-[(1H-benzimidazol-2-yl)methyl]-8-bromo-2-[(3aS,6aS)-1-methylhexahydropyrrolo[3,4-b]pyrrol-5 (1H)-yl]pyrazolo[1,5-a][1,3,5]triazin-4-amine]
CDK9/CycT1
  IC50: > 20000 nM
[1]
  IC50: 21.7 nM
[2]
  DC50: 4.59 nM
  (IC50 CDK12 high ATP) to (Degradation DC50 CDK12) ratio: >4361
[3]
  DC50: 1.37 nM

## CN1C[C@@H]2C[C@H]1CN2c1nc(NCc2nc3ccccc3[nH]2)n2ncc(Br)c2n1 [Example 219, N-[(1H-benzimidazol-2-yl)methyl]-8-bromo-2-[(1S,4S)-5-methyl-2,5-diazabicyclo[2.2.1]heptan-2-yl]pyrazolo[1,5-a][1,3,5]triazin-4-amine]
CDK9/CycT1
  IC50: > 20000 nM
[1]
  IC50: 11.6 nM
[2]
  DC50: 16.2 nM
  (IC50 CDK12 high ATP) to (Degradation DC50 CDK12) ratio: >1232
[3]
  DC50: 1.23 nM

## COc1cccc2[nH]c(CNc3nc(N4CCNCC4)nc4c(C5CC5)cnn34)nc12 [Example 211, 8-cyclopropyl-N-[(4-methoxy-1H-benzimidazol-2-yl)methyl]-2-(piperazin-1-yl)pyrazolo[1,5-a][1,3,5]triazin-4-amine]
CDK9/CycT1
  IC50: > 20000 nM
[1]
  IC50: 4.24 nM
[2]
  DC50: 2.32 nM
  (IC50 CDK12 high ATP) to (Degradation DC50 CDK12) ratio: 1184
[3]
  DC50: 0.478 nM

## Cc1ccc2[nH]c(CNc3nc(N4C[C@@H](C)N[C@@H](C)C4)nc4c(C5CC5)cnn34)nc2c1 [Example 194, 8-cyclopropyl-2-[(3R,5S)-3,5-dimethylpiperazin-1-yl]-N-[(5-methyl-1H-benzimidazol-2-yl)methyl]pyrazolo[1,5-a][1,3,5]triazin-4-amine]
CDK9/CycT1
  IC50: > 20000 nM
[1]
  IC50: 0.829 nM
[2]
  DC50: 0.23 nM
  (IC50 CDK12 high ATP) to (Degradation DC50 CDK12) ratio: 16078
[3]
  DC50: 0.0954 nM

## Fc1ccc2[nH]c(CNc3nc(N4C[C@@H]5CCCN[C@@H]5C4)nc4c(C5CC5)cnn34)nc2c1 [Example 180, 8-cyclopropyl-N-[(5-fluoro-1H-benzimidazol-2-yl)methyl]-2-[(4aS, 7aS)-octahydro-6H-pyrrolo[3,4-b]pyridin-6-yl]pyrazolo[1,5-a][1,3,5]triazin-4-amine]
CDK9/CycT1
  IC50: > 20000 nM
[1]
  IC50: 12 nM
[2]
  DC50: 1.59 nM
  (IC50 CDK12 high ATP) to (Degradation DC50 CDK12) ratio: 10852
[3]
  DC50: 0.859 nM

## FC(F)(F)c1cnn2c(NCc3nc4ccccc4[nH]3)nc(N3CCOCC3)nc12 [Example 241, N-[(1H-benzimidazol-2-yl)methyl]-2-(morpholin-4-yl)-8-(trifluoromethyl) pyrazolo[1,5-a][1,3,5]triazin-4-amine]
CDK9/CycT1
  IC50: > 20000 nM
[1]
  IC50: 17.3 nM
[2]
  DC50: 4.34 nM
  (IC50 CDK12 high ATP) to (Degradation DC50 CDK12) ratio: 186
[3]
  DC50: 1.26 nM

## Cc1ccc2[nH]c(CNc3nc(N4C[C@@H]5CCCN[C@@H]5C4)nc4c(C5CC5)cnn34)nc2c1 [Example 195, 8-cyclopropyl-N-[(5-methyl-1H-benzimidazol-2-yl)methyl]-2-[(4aS,7aS)-octahydro-6H-pyrrolo[3,4-b]pyridin-6-yl]pyrazolo[1,5-a][1,3,5]triazin-4-amine]
CDK9/CycT1
  IC50: > 20000 nM
[1]
  IC50: 2.83 nM
[2]
  DC50: 2.18 nM
  (IC50 CDK12 high ATP) to (Degradation DC50 CDK12) ratio: 3781
[3]
  DC50: 1.29 nM

## CC1(C)CN(c2nc(NCc3nc4ccccc4[nH]3)n3ncc(Br)c3n2)CCN1 [Example 216, N-[(1H-benzimidazol-2-yl)methyl]-8-bromo-2-(3,3-dimethylpiperazin-1-yl)pyrazolo[1,5-a][1,3,5]triazin-4-amine]
CDK9/CycT1
  IC50: > 20000 nM
[1]
  IC50: 7.36 nM
[2]
  DC50: 3.31 nM
  (IC50 CDK12 high ATP) to (Degradation DC50 CDK12) ratio: >1386
[3]
  DC50: 0.354 nM

## Fc1cccc2[nH]c(CNc3nc(N4C[C@@H]5CCCN[C@@H]5C4)nc4c(C5CC5)cnn34)nc12 [Example 187, 8-cyclopropyl-N-[(4-fluoro-1H-benzimidazol-2-yl)methyl]-2-[(4aS,7aS)-octahydro-6H-pyrrolo[3,4-b]pyridin-6-yl]pyrazolo[1,5-a][1,3,5]triazin-4-amine]
CDK9/CycT1
  IC50: > 20000 nM
[1]
  IC50: 9.17 nM
[2]
  DC50: 0.707 nM
  (IC50 CDK12 high ATP) to (Degradation DC50 CDK12) ratio: 9192
[3]
  DC50: 0.369 nM

## CN(CCO)c1nc(NCc2nc3ccccc3[nH]2)n2ncc(Br)c2n1 [Example 237, 2-[(4-{[(1H-benzimidazol-2-yl)methyl]amino}-8-bromopyrazolo[1,5-a][1,3,5]triazin-2-yl)(methyl)amino]ethan-1-ol]
CDK9/CycT1
  IC50: > 20000 nM
[2]
  DC50: 128 nM
  (IC50 CDK12 high ATP) to (Degradation DC50 CDK12) ratio: 58
[3]
  DC50: 19.7 nM
